Patent publication US20200197439A1, “IMM[…] POLYOMAVIRUSES” (Atara Biotherapeutics, Inc., priority 2016, published 2020)

What follows are sequences tested on CD8+ T cells (assay: HLA restriction of mapped CD8+ BKV epitopes (ICS with peptide loaded HLA-matched and mismatched LCLs)). Settings: CD8+ epitopes mapped in this study; T cells stimulated with peptide loaded HLA-matched and mismatched LCLs.
Format: cell-based, human
From the text: In order to characterize the T cell responses directed towards these antigens and precisely map the HLA class I and class II-restricted T cell responses, individual overlapping peptides (15 aa long overlapping by 10 aa) were sourced for LTA, STA and VP1 proteins for T cell epitope mapping. A two-dimensional peptide matrix was used to distribute all individual peptides into small overlapping peptide pools. The matrix is set up in the way that each peptide occurs once on the ordinate (FIG. 3). These peptide pools were used in ICS assays. After the ICS analysis, T cell response to the peptide pools was compared with the matrix to identify individual peptides. These individual peptides were further assessed for T cell expansion and ICS analysis to identify potential BK. Once the 15 mer peptide was identified, further mimimalization of the epitope sequence was carried out to identify the optimal T cell epitope sequence. The 15 mer peptide sequences were trimmed from both N- and C-terminus to a minimal of 9 aa long peptides. Once the minimal peptide sequence was identified, further confirmation was carried out using limiting dose titration ICS assay. After mapping minimal epitope sequence, the HLA restriction of the epitope was identified by stimulating T cells using peptide loaded HLA-matched and mismatched LCLs. […]

Q: VKNPYPISFLL (BK polyomavirus) was tested. Which “HLA Restriction” value did it give?
A: The value was “Cw*07”.

The sequences below were run on CD4+ T cells (assay: HLA restriction of mapped CD4+ BKV epitopes (ICS with peptide loaded HLA-matched and mismatched LCLs)). Settings: CD4+ epitopes mapped in this study; T cells stimulated with peptide loaded HLA-matched and mismatched LCLs.
Format: cell-based, human
From the text: In order to characterize the T cell responses directed towards these antigens and precisely map the HLA class I and class II-restricted T cell responses, individual overlapping peptides (15 aa long overlapping by 10 aa) were sourced for LTA, STA and VP1 proteins for T cell epitope mapping. A two-dimensional peptide matrix was used to distribute all individual peptides into small overlapping peptide pools. The matrix is set up in the way that each peptide occurs once on the ordinate (FIG. 3). These peptide pools were used in ICS assays. After the ICS analysis, T cell response to the peptide pools was compared with the matrix to identify individual peptides. These individual peptides were further assessed for T cell expansion and ICS analysis to identify potential BK. Once the 15 mer peptide was identified, further mimimalization of the epitope sequence was carried out to identify the optimal T cell epitope sequence. The 15 mer peptide sequences were trimmed from both N- and C-terminus to a minimal of 9 aa long peptides. Once the minimal peptide sequence was identified, further confirmation was carried out using limiting dose titration ICS assay. After mapping minimal epitope sequence, the HLA restriction of the epitope was identified by stimulating T cells using peptide loaded HLA-matched and mismatched LCLs.
In order to map the T cell epitope further analysis was carried out using sub pools of STA peptides (12 pools) designed based on the two dimensional matrix shown in FIG. 3. […] Similar epitope mapping process was carried out for other CD4^+ and CD8^+ T cell epitopes.

Q: How did the “HLA Restriction” value turn out when CFTQWFGLDLTEETL [JCV variant […]] was run?
A: The value was “DRB1*03/04”.

Q: How did the “HLA Restriction” value turn out when FNVPKRRYWLFKGPI [JCV variant […]] was run?
A: Its value is “DRB1*15”.

Q: Which “HLA Restriction” value does the source give for GGDEDKMKRMNTLYK [JCV variant […]] here?
A: The value was “DRB1*13”.

Q: For GTQQWRGLARYFKIR [JCV variant […]], which “HLA Restriction” value is on record?
A: Its value is “DRB1*11/8”.

Q: For KMKRMNTLYKKMEQD [JCV variant […]], which “HLA Restriction” value is on record?
A: Its value is “DRB1*13”.

Q: With RGLARYFKIRLRKRS [JCV variant […]] as the sequence, how does the “HLA Restriction” value read?
A: The value was “DRB1*11”.

Q: With RKAYLRKCKEFHPDK [JCV variant […]] as the sequence, how does the “HLA Restriction” value read?
A: The value was “DRB1*13”.

Q: For RRYWLFKGPIDSGKT [JCV variant […]], which “HLA Restriction” value is on record?
A: Its value is “DRB1*15”.

Q: How did the “HLA Restriction” value turn out when WDEDLFCHEDMFASD [JCV variant […]] was run?
A: The value was “DQB5*01”.
